The text below walks through data of patent EP2435019B1, “DODECA-2E,4E-DIENE AMIDES AND THEIR USE AS MEDICAMENTS AND COSMETICS” (Dr. August Wolff GmbH & Co. KG Arzneimittel, priority 2009, dated 2010).

In one data set the test system is [3H]-AEA uptake. Nature of the data set: Cellular uptake of [3H]-AEA in human primary monocytes (assay C). In kind it is cell-based. The settings on record: Figure 1(a), 1 µM. The method, then:
(§1) • Figure 1: AEA re-uptake inhibition of 2E,4E-dieneamides 1 and 9 into human primary monocytes and U937 cells. […] Data are mean values ± SEM of 3 independent experiments in a sigmoidal dose-response curve. • Figure 2: Concentration-dependent effects of 4 and 5 on FAAH activity. […] The maximal inhibition (32%) of 5 was measured at 1 µM. Data are mean values ± SEM of 3 independent experiments. • Figure 3: Effects of low nM concentrations of N-alkylamide 7 on FAAH activity alone and in combination with the FAAH inhibitor URB597. […] Data are mean values ± SEM of 3 independent experiments. • Figure 4: 1 and 9 inhibit LPS-induced TNF-alpha release into culture medium (measured by ELISA). Human macrophages (10^6 cells) were stimulated with LPS (500 ng/ml) and treated with UCM707 and/or compounds 1 and 9 at 5 µM for 18 h. N = 3 ± SEM. • Figure 5: UCM707 (positive control) and compounds 1 and 9 diminish NO2^- production. Human macrophages (10^6 cells) were stimulated with LPS (500 ng/ml) and treated with UCM707 and/or compounds 1 and 9 at 5 µM for 18 h. Culture supernatants were assayed for nitrite levels, using the Griess reagent as a reflection of NO production. […]
Human lymphoma U937 cells were grown in RPMI 1640 medium (Invitrogen, Basel, Switzerland) supplemented with 10% fetal bovine serum, […] fungizone (amphotericin B), 100 units/ml penicillin, 100 µg/ml streptomycin, and 2 mM L-glutamine (all from Invitrogen) and selected for the cellular AEA uptake assay. […] The filters-bound radioactivity was measured using a Beckman LS6500 scintillation counter. Results were expressed as % of AEA uptake versus cells treated with solvent and the EC50 and IC50 values were calculated from the sigmoidal curves, which were generated using the GraphPad Prism (GraphPad Software, San Diego, CA, US).

The subject of a further data set is TNF-alpha release. Nature of the data set: LPS-induced TNF-alpha release from human macrophages (ELISA). In kind it is cell-based. The settings on record: Figure 4; LPS 500 ng/ml; 5 µM for 18 h. How it is done:
as §1

The nature of data set [1]: Critical micelle concentration (CMC) measurement, dye micellization. In kind it is physicochemical. Particulars: fluorescein dye micellization in water, pH 6.9, room temperature.
Data set [2] addresses T1, human recombinant Fatty acid amide hydrolase (Homo sapiens, UniProt O00519).
T1 sequence (O00519 1-579): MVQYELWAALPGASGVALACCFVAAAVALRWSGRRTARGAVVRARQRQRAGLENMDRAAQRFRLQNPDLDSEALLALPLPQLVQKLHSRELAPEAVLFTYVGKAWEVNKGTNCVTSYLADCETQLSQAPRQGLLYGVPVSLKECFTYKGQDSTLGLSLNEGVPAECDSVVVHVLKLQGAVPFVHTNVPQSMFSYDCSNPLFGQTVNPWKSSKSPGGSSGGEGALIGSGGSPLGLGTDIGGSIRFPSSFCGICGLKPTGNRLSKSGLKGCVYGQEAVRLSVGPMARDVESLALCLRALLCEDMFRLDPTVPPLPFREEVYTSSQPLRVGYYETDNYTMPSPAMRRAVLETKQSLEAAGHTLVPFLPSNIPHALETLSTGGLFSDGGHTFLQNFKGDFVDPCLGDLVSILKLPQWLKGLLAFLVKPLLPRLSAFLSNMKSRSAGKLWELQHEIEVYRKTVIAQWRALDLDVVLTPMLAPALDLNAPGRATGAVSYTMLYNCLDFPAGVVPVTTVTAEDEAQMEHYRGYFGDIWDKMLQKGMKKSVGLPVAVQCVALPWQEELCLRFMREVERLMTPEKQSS
Nature of the data set: Inhibition of human recombinant FAAH, fluorometric method (assay G). Particulars: human recombinant enzyme, AMC-anandamide substrate (assay G). The data set is classed as biochemical. How it is done: FAAH activity is measured using the modified method described by Omeir et al., Arachidonoyl ethanolamide-[1,2-14C] as a substrate for anandamide amidase. Life Sci. 1995;56(23-24):1999-2005. Human recombinant enzyme is preincubated with reference compound (methylarachidonlyfluorophosphonate, MAFP) and test compounds for 30 min at room temperature in 50 mM Tris containing 1 mM EDTA and 0.1% fatty acid free BSA (pH 8.0). Substrate (7-amino-4-methyl coumarin-arachidonamide, AMC-anandamide) is then added and incubated for 30 min at room temperature. The reaction is stopped by the addition of 2.5 µl of 10 µM URB597. Released 7-amino-4-methyl coumarin (AMC) is detected by fluorometry in order to ascertain any interactions of test compounds with the FAAH enzyme.

On to `CCCCCCC/C=C/C=C/C(=O)NCCO` [Example 1, (2E,4E)-N-(2-hydroxyethyl)dodeca-2,4-diene amide], for which, in data set [3H]-AEA uptake, the “[3H]-AEA uptake inhibition” value was “potently inhibited”. Besides, the “LPS-induced TNF-alpha release into culture medium” value in the data set with TNF-alpha release is reported as “inhibit”. The CMC in data set [1] was above 10 µM. Moreover, the “FAAH inhibition at 1 µM” value in data set [2] is 9 % of control.
The like results for `CCCCCCC/C=C/C=C/C(=O)NCCc1cccc(OC)c1` [Example 9, (2E,4E)-N-(3-methoxyphenethyl)dodeca-2,4-diene amide] were, in that order, “potently inhibited”, “inhibit”, above 5 µM and 16 % of control.
